According to patent US4686206A, “Composition for activating function of phagocytes” (Sunstar Kabushiki Kaisha, priority 1984, dated 1987):

Experiments:
[1] = tested on: neutrophils; test: Phagocytosis of neutrophils (opsonized FITC-labeled Staphylococcus aureus IFO 13276); assay type: cell-based; details: Homo sapiens, Neutrophil, 0.25 h; 1 μg/ml; 15 min at 37° C.; relative to control = 100%
Method: Neutrophils were separated from human peripheral blood and a suspension containing 2.5×10^6 cells/ml of neutrophils was prepared. Tocopherol or a different tocopheryl glycoside was added to 900 μl of this suspension so that the concentration of tocopherol or the tocopheryl glycoside was 1 μg/ml and the mixture was incubated at 37° C. for 15 minutes.
The suspension (100 μl) containing 1×10^9 cells/ml of opsonized Staphylococcus aureus (IFO 13276) labeled with fluorescein isothiocyanate was added to the mixture. The resulting mixture was incubated at 37° C. for 15 minutes. Then, the number of cells incorporated into 100 cells of neutrophils was counted by using a fluorescence microscope. As a control, the same procedure was repeated except that tocopherol or the tocopheryl glycoside was not added. In Table 2, the relative percentage of the counting obtained by addition of tocopherol or the tocopheryl glycoside is shown by taking the counting of the control as 100%.

[2] = tested on: neutrophils; test: Random migration of human neutrophils (Boyden chamber, PBS in lower part); assay type: cell-based; details: Neutrophil, 1 μg/ml, 15 min preincubation, 1 to 3 hours at 37° C., relative to control = 100%, read-out: random motoricity
Method: (§1) Neutrophils were separated from human peripheral blood and the effect of various tocopherylglycosides on random migration and chemotaxis of the neutrophils were measured by using Boyden chambers.
(§2) Tocopherol or a tocopheryl glycoside dissolved in 1% dimethylsulfoxide was added to a suspension containing 2.5×10^6 cells/ml of neutrophils so that a concentration of tocopherol or the tocopheryl glycoside was 1 μg/ml. After 15 minutes incubation at 37° C., the mixture was added to the upper part of the chamber. To the lower part of the chamber was added PBS in case of measuring random migration, or added 2×10^-8 M of N-formyl-methionyl-leucyl-phenylalanine in case of measuring chemotaxis. Then, the chamber was incubated at 37° C. for 1 to 3 hours. After incubation, the filter was fixed and stained with hematoxylin, and then the number of neutrophils migrated to the bottom of the filter was counted by using a microscope. As a control, the same procedure was repeated except that tocopherol or the tocopheryl glycoside was not added. In Table 1, the relative percentage of the counting obtained by addition of tocopherol or the tocopheryl glycoside is shown by taking the counting of the control as 100%.

[3] = tested on: neutrophils; test: Chemotaxis of human neutrophils (Boyden chamber, N-formyl-methionyl-leucyl-phenylalanine in lower part); assay type: cell-based; details: Neutrophil, 1 μg/ml, 2×10^-8 M N-formyl-methionyl-leucyl-phenylalanine, 1 to 3 hours at 37° C., relative to control = 100%
Method: as §1, §2

[4] = Acute toxicity (LD50) in rat; details: in vivo
[5] = tested on: Pseudomonas aeruginosa (P-1 strain, Ikaken); test: In vivo test to Pseudomonas aeruginosa (survival of infected mice); set-up: species or system ICR mice; details: 1 mg/kg i.v. once a day for three days; 2.5×10^7 cells P. aeruginosa i.p.; after 24 hours; control 0%
Method: An aqueous injectable solution of dl-α-tocopheryl glucoside or dl-α-tocopheryl mannoside (see Example 3) was intravenously injected to ICR mice (body weight: 20 to 25 g, 10 mice per a group (5 female mice and 5 male mice)) once a day (dose: 1 mg/kg) for three days continuously. After the final injection, 2.5×10^7 cells of Pseudomonas aeruginosa (P-1 strain, Ikaken) were injected i.p. and the percentage of survival animuls was determined after 24 hours. As a control, the same procedure was repeated except that an equal amount of distilled water was used instead of the tocopheryl glycoside and the percentage of survival animals was determined. As the result, the percentage of survival of the control group was 0%, whereas that of the group injected with dl-α-tocopherylglucoside or dl-α-tocopherylmannoside was 20%, respectively.

Structure (SMILES) | activity at 1 µg/mL [1] | activity at 1 µg/mL [2] | activity at 1 µg/mL [3] | LD50 ([4]; ip) | LD50 ([4]; po) | percentage of survival [5]
Cc1c(C)c2c(c(C)c1OC1O[C@H](CO)[C@H](O)[C@H](O)[C@H]1O)CCC(C)(CCCC(C)CCCC(C)CCCC(C)C)O2 (mixture of isomers) [dl-α-Tocopherylgalactoside, reference compound] | 112 ± 9% | 64 ± 8% | 85 ± 3% | – | – | –
Cc1c(C)c2c(c(C)c1OC1O[C@H](CO)[C@@H](O)[C@H](O)[C@H]1O)CCC(C)(CCCC(C)CCCC(C)CCCC(C)C)O2 (mixture of isomers) [dl-α-Tocopherylglucoside, dl-α-tocopherylglucoside] | 168 ± 31% | 98 ± 34% | 140 ± 6% | ≥ 500 mg/kg | ≥ 5000 mg/kg | 20%
Cc1c(C)c2c(c(C)c1O[C@@H]1O[C@H](CO)[C@@H](O)[C@H](O)[C@@H]1O)CCC(C)(CCCC(C)CCCC(C)CCCC(C)C)O2 (mixture of isomers) [dl-α-Tocopherylmannoside] | 219 ± 21% | 71 ± 16% | 168 ± 3% | ≥ 500 mg/kg | ≥ 5000 mg/kg | 20%
Cc1c(C)c2c(c(C)c1O)CCC(C)(CCCC(C)CCCC(C)CCCC(C)C)O2 (racemic) [dl-α-Tocopherol, reference compound] | 164 ± 16% | 82 ± 12% | 94 ± 5% | – | – | –
